In brackets after ≈: the same amount, converted by molar mass. Where two headings read alike, the source gives them in different places.
How the values were obtained:
[1] = Decomposition temperature by differential scanning calorimetry; assay type: physicochemical; conditions: DSC, onset of decrease in slope of temperature-heat flow curve; unit not given (scans in ° C.)
Experimental: A dual cell Perkin Elmer differential scanning calorimeter (PE DSC 7, Norwalk, Conn.) was used to determine the thermal transitions of the compounds. All scans were carried out from 30° C. to 200° C. at a heating and cooling rate of 10° C./minute and 40° C./min, respectively, except for 1-(3-methoxybenzyl)-3-(1-propenyl) thiourea, for which the scans were carried out from 0° C. to 200° C. at a heating rate of 10° C./min, and 1-(3-methoxybenzyl)-3-octadecyl thiourea, for which both the heating and cooling rates were 10° C./min. 1,3-di(3-methoxybenzyl) thiourea and 1-(3-methoxybenzyl)-3-dodecyl thiourea were heated to 300° C., and 1-(3-methoxybenzyl)-3-(4-methoxybenzoyl) thiourea was heated to 250° C. to determine the decomposition temperature. The decomposition temperature was taken as the onset of a decrease in the slope of the temperature-heat flow DSC curve. The first heating curve was recorded in all cases, and liquid nitrogen was used to quench the samples after the first heating.

[2] = Behaviour on addition of water to DMSO solution (sample preparation); assay type: physicochemical; conditions: dissolved in 50 μl DMSO, water added to make 1 mg/ml
Experimental: Test compounds (1–2 mg) were originally made up at a concentration of 1 mg/ml in artificial seawater, except for water insoluble compounds, which were dissolved in 50 μl of dimethyl sulfoxide (DMSO) prior to adding enough water to make a 1 mg/ml solution. Serial dilutions were performed in 100 μl of seawater in triplicate in the wells of a 96-well microplate to give appropriate concentrations. Control wells for both water and DMSO were included with each experiment. A 100 μl solution of naupli (10–30) was added to each well, and the covered plate was incubated for 24 h at 27° C. The number of non-motile, and the total number of, naupli were counted in each well using a binocular microscope (10×). LC50 values were then calculated by Probit analysis (Finney, D. J., 1971, “Probit Analysis,” 3rd Ed.; University Press: Cambridge [Eng.]).

[3] = OSI test of unrefined (crude) meadowfoam seed oil, alone or mixed with additive; conditions: 110° C.
From the text: (§1) A presently preferred method of determining oxidative stability of lipids and oils employs the Oxidative Stability Index (OSI), which determines the oxidative stability of an oil by passing air through a sample under stringent temperature control. (Firestone, Oxidative Stability Index (OSI): Official Methods of Recommended Practices of the American Oil Chemists' Society (AOCS), 4th Ed. American Oil Chemists Society, Champaign, Ill., AOCS Official Method Cd 12b-92, 1993.) In this method, a stream of air is passed through the oil sample, which aids in the rapid degradation of the triglyceride into volatile organic acids. The air stream flushes the volatile acids from the oil into a conductivity cell containing water where the acids are solubilized. These acids, once dissolved in the water solution, disassociate into ions, thus changing the conductivity of the water. Therefore, a continuous measure of the conductivity of the cell by computer will indicate when a rapid rise in the conductivity occurs that corresponds to the induction point, oxidative failure of the sample. The time to the induction point is the OSI time. […] Saturated fatty acid methyl ester (FAME) standards commercially available from Alltech Associates (Deerfield, Ill.) may be used to calibrate the OSI determinations.
(§2) OSI determinations may be performed on an oxidative stability instrument manufactured by Omnion (Rockland, Mass.) using the AOCS method described in the above-disclosed Firestone reference. Lipid or oil samples may be run at 110° C. and FAMEs may be tested at 90° C., with air flow set at 35 kPa with a resulting velocity of about 140 ml/min. A presently preferred method for determining OSI values is described by T. A. Isbell et al., “Oxidative Stability Index of Vegetable Oils in Binary Mixtures with Meadowfoam Oil,” Industrial Crops and Products 9, 115–123 (1999).
Unless otherwise stated, Oxidative Stability Index (OSI) values were determined on 5.00 ±0.05 g lipid or oil samples in triplicate according to AOCS Official Method Cd 12b-92 (AOCS, 1993) at 90° C., 110° C. and/or 130° C. on an oxidative stability instrument manufactured by Omnion (Rockland, Mass.). Details of the procedure have been published by Isbell et al., “Oxidative Stability Index of Vegetable Oils in Binary Mixtures with Meadowfoam Oil,” Ind. Crops Prod. 9, 115–123 (1999). When compounds of the present invention were added to the lipid or oil sample being tested, the compounds (0.1% to 1.0% by weight) were added to the test lipid or oil (20 g) and dissolved or dispersed at room temperature before triplicate 5.00 g samples of lipid or oil with an added compound of the invention were weighed into the OSI test tube. […]

[4] = Oxidative Stability Index (OSI) of refined meadowfoam seed oil plus additives; conditions: 130° C.; for increase in the OSI time: refined meadowfoam seed oil, versus oil with no additives
From the text: as §1, §2
Unless otherwise stated, Oxidative Stability Index (OSI) values were determined on 5.00 ±0.05 g lipid or oil samples in triplicate according to AOCS Official Method Cd 12b-92 (AOCS, 1993) at 90° C., 110° C. and/or 130° C. on an oxidative stability instrument manufactured by Omnion (Rockland, Mass.). Details of the procedure have been published by Isbell et al., “Oxidative Stability Index of Vegetable Oils in Binary Mixtures with Meadowfoam Oil,” Ind. Crops Prod. 9, 115–123 (1999). When compounds of the present invention were added to the lipid or oil sample being tested, the compounds (0.1% to 1.0% by weight) were added to the test lipid or oil (20 g) and dissolved or dispersed at room temperature before triplicate 5.00 g samples of lipid or oil with an added compound of the invention were weighed into the OSI test tube.
The 1,3-di(3-methoxybenzyl) thiourea prepared in Example 3 was mixed at 0.1%, 0.5% or 1.0% with refined meadowfoam seed oil (Lot #CW-4551, The Fanning Corp) and the oxidative stability of the mixtures was compared to that of refined meadowfoam seed oil at 130° C. The OSI times were 49.8 h, 159 h and 172 h, respectively, for the mixtures containing the thiourea compared to an OSI time of 14.9 h for this lot of refined meadowfoam seed oil with no additives at 130° C.
Thus, 1,3-bis(2-methoxyphenyl)-2-thiourea (Aldrich Chem Co.) added at 0. […] Likewise, 1,3-bis(3-methoxyphenyl)-2-thiourea at 0. 1% added to refined meadowfoam oil gave an OSI time of 27.0 h, an […] lower value than for the 1,3-di-(3-methoxybenzyl) thiourea produced in Example 3.

[5] = Solubility in refined meadowfoam seed oil (HPLC); assay type: physicochemical; conditions: oil or lipid, thermodynamic from solid, cooled to room temperature overnight
Experimental: Typical retention times were 7–9 min for the thioureas. Samples were weighed accurately (about 0.1 g) into 1.00 g of refined meadowfoam seed oil and heated to temperature (either 30° C. or 50° C.) for 4 h with occasional shaking. The samples were cooled to room temperature overnight, centrifuged and 0.3 g of the supernatant oil was removed and diluted with 1 ml CHCl3 for testing.

## COc1cccc(CNC(=S)NCc2cccc(OC)c2)c1 [1,3-di(3-methoxybenzyl) thiourea]
[1]
  Decomposition Temperature: 265 °C
[2]
  behaviour upon the addition of water: precipitated out of solution
[3]; 0.1% additive
  OSI Time: 76.4 h
  improvement of OSI time compared to meadowfoam oil alone: 15%
[3]; 1% additive
  OSI Time: 211 h
  improvement of OSI time compared to meadowfoam oil alone: 218%
[4]; refined meadowfoam seed oil Lot #CW-4551, 0.1% additive
  OSI Time: 49.8 h
[4]; refined meadowfoam seed oil Lot #CW-4551, 0.5% additive
  OSI Time: 159 h
[4]; refined meadowfoam seed oil Lot #CW-4551, 1.0% additive
  OSI Time: 172 h
[4]; refined meadowfoam seed oil plus additive 0.1%
  OSI Time: 49.8 h
[4]; refined meadowfoam seed oil plus additive 0.5%
  OSI Time: 159 h
[4]; refined meadowfoam seed oil plus additive 1.0%
  OSI Time: 172 h
[4]; 0.1% additive
  increase in the OSI time: 234%
[4]; 0.5% additive
  increase in the OSI time: 967%
[4]; 1.0% additive
  increase in the OSI time: 1054%
[5]; heated to 30° C. for 4 h, read-out: Solubility at 30° C.
  solubility at 4 h: 2480 µg/mL (≈ 7.84 mM)
[5]; heated to 50° C. for 4 h, read-out: Solubility at 50° C.
  solubility at 4 h: 3520 µg/mL (≈ 11.1 mM)
